One series has as its system OCs. Kind of series: Tunel staining of OCs apoptosis. As to conditions: BGD 64 μM or ALD 500 μM, 24 h, n = 3. It is filed as cell-based, mice.
The next series has as its system OVX mice. To be noted: mouse, in vivo.
The test system of another series is OCs formed by BMMs. Briefly: TRAP staining of RANKL-induced OCs formed by BMMs. The series is classed as cell-based, mice. To be noted: TRAP staining day 6, n = 5.
A short description of another series: Dynamic light scattering. It is filed as physicochemical. As to conditions: self-assembled nanoparticles, aqueous solution pH 7.4, 64 μM, Zetasizer.
A further series deals with BMMs. Kind of series: CCK-8 cytotoxicity assay, BMMs. The series is classed as cell-based, mice. As to conditions: CCK-8, 24 h, different concentrations, n = 3. (In general: Tetrazolium dyes change colour on reduction, which living cells bring about.)
Series [1] is described as follows: TEM morphology of peptide assemblies in PBS. As to conditions: 64 μM in PBS pH 7.4, 8 h incubation.
The target of the next series is T1, CTSK (Homo sapiens, UniProt P43235).
T1 sequence (P43235 115-329): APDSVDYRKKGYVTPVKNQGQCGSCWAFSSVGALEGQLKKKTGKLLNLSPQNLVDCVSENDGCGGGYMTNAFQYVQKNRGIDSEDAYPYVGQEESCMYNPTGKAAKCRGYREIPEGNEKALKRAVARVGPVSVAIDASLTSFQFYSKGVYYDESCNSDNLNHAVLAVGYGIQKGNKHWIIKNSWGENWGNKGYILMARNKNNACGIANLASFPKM
Briefly: Zeta potential of the enzymolysis reaction mixture with and without CTSK. It is filed as physicochemical. As to conditions: 64 μM peptide.

Series [2] can be described thus: Zeta potential of peptide assemblies. It is filed as physicochemical. As to conditions: self-assembled peptide, 64 μM, Zetasizer, n = 3.

On to `NCCCC(O)(P(=O)(O)O)P(=O)(O)O` [ALD, Alendronate], for which the “cells undergoing apoptosis (Tunel staining)” value in the series with OCs is “a large number of OCs and pre-OCs underwent apoptosis”. Further, the “micro-CT bone parameters (BMD, BV/TV, Tb.Th, Tb.N, Tb.Sp) vs OVX” value in the series on OVX mice is recorded as “significantly improved”.

As to `CCCN1CCN(c2ccc(C(=O)NC3(C(=O)NCC#N)CCCCC3)cc2)CC1` [Balicatib, reference compound], the “OCs formation, inhibitor alone” value in the series with OCs formed by BMMs (20 nM on day 5 of RANKL induction) is “did not inhibit OCs formation”.

Consider Bip-FFWKYK-GHPAAPQ-DDDDDD [BAD], for which, in the series on OCs formed by BMMs (peptide (64 μM) added on day 5 of RANKL induction), the “number of TRAP-positive OCs vs RANKL control” value is “no significant effect”. In the series “Dynamic light scattering”, the “average size of nanoparticles (DLS)” value worked out at 36.6 nm. Also, the “cytotoxicity toward BMMs” value in the series with BMMs is recorded as “consistent cytocompatibility”. Further, the “morphology of assemblies (TEM)” value in series [1] is “dispersed, nearly spherical nanoparticles”. Further, the “zeta potential of reaction mixture, presence of CTSK / after cleavage” value at CTSK (MES buffer pH 5.5, with CTSK 800 ng/ml) is recorded as −9.5 mV. Also, the “zeta potential of reaction mixture, absence of CTSK / before cleavage” value on CTSK (MES buffer pH 5.5, without CTSK) was −14.3 mV. In series [2], this compound showed a Zeta potential of −20.8 mV.

Regarding Bip-FFWKYK-GHPGGPQ-KKKKKK [BGK], the “cytotoxicity toward BMMs” value in the series on BMMs was “exhibited cytotoxicity at 32 μM”. Further, the Zeta potential entry in series [2] was “+11.2 mV”.

As to Bip-FFWKYK-GHPGGPQ-NNNNNN [BGN], the “cytotoxicity toward BMMs” value in the series with BMMs is listed as “biocompatible”. This compound also registered a Zeta potential in series [2] of −26.4 mV.

Values taken from PMC12770474 (Nature Communications, 2025).
